Here are results for one molecule from patent publication US4657898A, “N^6 -substituted adenosines and method of use” (Warner-Lambert Company, priority 1985, dated 1987).

One series has as its target T1, adenosine A1 receptor (Rattus norvegicus, UniProt P25099).
T1 construct: Whole brain minus cerebellum and brainstem from male Long Evans rats; from tissue; host or cells: rat whole brain minus cerebellum and brainstem, membranes (male Long Evans)
T1 sequence (P25099 1-326): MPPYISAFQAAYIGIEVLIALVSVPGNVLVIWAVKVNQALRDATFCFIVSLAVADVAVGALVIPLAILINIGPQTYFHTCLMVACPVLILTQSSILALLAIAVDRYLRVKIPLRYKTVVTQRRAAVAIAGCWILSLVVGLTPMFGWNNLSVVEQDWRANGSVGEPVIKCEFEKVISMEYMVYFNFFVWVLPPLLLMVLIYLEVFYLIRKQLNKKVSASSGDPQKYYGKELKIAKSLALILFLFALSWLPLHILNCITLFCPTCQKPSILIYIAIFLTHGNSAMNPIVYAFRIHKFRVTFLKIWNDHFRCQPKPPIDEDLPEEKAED
Kind of series: Adenosine Receptor Binding--A1 Receptor Affinity (RBA1), [3H]-CHA. More on the design: species or system rat (male Long Evans). How it is done:
Adenosine Receptor Binding--A1 Receptor Affinity (RBA1)
Whole brain minus cerebellum and brainstem from male Long Evans rats (150-200 g) was homogenized in 30 volumes of ice-cold 0.05M Tris-HCl buffer pH 7.7 using a Brinkman Polytron PT-10, (setting number 6 for 20 seconds) and centrifuged for ten minutes at 20,000 xg (Sorvall RC-2), 4° C. The supernatant was discarded, and the pellet was resuspended and centrifuged as before. The pellet was resuspended in 20 ml Tris-HCl buffer containing two International Units/ml of adenosine deaminase (Sigma type III from calf intestinal mucosa), incubated at 37° C. for 30 minutes, then subsequently at 0° C. for ten minutes. […]
Tissue homogenate (10 mg/ml) was incubated in 0.05M Tris-HCl buffer pH 7.7 containing 1.0 nM [^3 H]-N^6 -cyclohexyladenosine (^3 H]-CHA) with or without test agents in triplicate for one hour at 25° C. […] The radio-labeled ligand retained on the filter was measured by liquid scintillation spectrophotometry after shaking the filters for one hour or longer on a mechanical shaker in 10 ml of Beckman Ready-Solv HP scintillation cocktail.
Nonspecific binding was defined as the binding which occurred in the presence of 1 mM theophylline. […] The Scatchard plot was calculated by linear regression of the line obtained by plotting the amount of radioligand bound [formula] […]

Series [1] is described as follows: Mouse Activity and Screen Test Procedure (MAST): screen test failure (ST). To be noted: lowest dose at which an A rating is achieved, screen test; i.p., mouse. On the procedure: Nine unfasted Swiss-Webster male mice weighing 20-30 g are equally divided into three groups for each drug dose to be tested. That is, data for each dose level was generated by three separate groups of three mice each.
A minimum of three dose levels (10, 30, and 100 mg/kg) are tested for each drug. Treatments are administered intraperitoneally one hour prior to testing. All dosages are calculated as parent compound and given in volumes of 10 ml/kg. Compounds are dissolved or suspended in 0.2% Methocel. Control animals are injected with Methocel.
Testing: A two part testing procedure is started one hour postinjection. First, the screen test (ST) is performed (see Pharmac. Biochem. Behav. 6, 351-353, 1977). Briefly this test consists of placing mice on individual wire screens which are then rotated 180 degrees at the start of a 60 second observation period. The number of mice falling off the inverted screen is recorded.
Data: The data obtained from the screen test are expressed as percent of mice falling off the screen. Data derived from locomotor activity of drug treated mice are compared to the activity of vehicle treated animals and are expressed as percent inhibition of spontaneous locomotion. All percentages reported for inhibition of locomotion (LI) are based upon data accumulated for one hour. Both phases of testing are graded: A=60-100%; C=31-59%; and N=0-30%. An overall dose rating is obtained by the following criteria:
LAD refers to the lowest dose at which an A rating is achieved. […] The compounds are identified in the Examples.

The target in another series is T2, adenosine A2 receptor (Rattus norvegicus, UniProt P30543).
T2 construct: 5 mg original tissue weight of rat weight of rat striatal membranes; tissue Pel-Freez (Rogers, Ark.); host or cells: rat striatum, membranes (Sprague-Dawley; Long-Evans from Blue Spruce Farms gave essentially identical results)
T2 sequence (P30543 whole entry): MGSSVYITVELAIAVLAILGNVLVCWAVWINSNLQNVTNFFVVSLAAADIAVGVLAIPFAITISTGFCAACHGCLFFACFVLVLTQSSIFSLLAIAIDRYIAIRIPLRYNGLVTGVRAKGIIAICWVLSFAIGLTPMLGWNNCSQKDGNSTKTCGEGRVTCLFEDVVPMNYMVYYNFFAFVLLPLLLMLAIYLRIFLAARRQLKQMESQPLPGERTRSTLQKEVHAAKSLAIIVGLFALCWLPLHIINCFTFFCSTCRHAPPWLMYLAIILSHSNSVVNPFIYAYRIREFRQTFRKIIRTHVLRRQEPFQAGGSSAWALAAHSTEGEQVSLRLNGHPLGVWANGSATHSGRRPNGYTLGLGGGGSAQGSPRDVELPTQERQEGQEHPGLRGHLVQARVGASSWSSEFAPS
Kind of series: Adenosine Receptor Binding--A2 Receptor Affinity (RBA2), [3H]NECA. More on the design: species or system rat (Sprague-Dawley or Long-Evans, striatum). How it is done:
Adenosine Receptor Binding--A2 Receptor Affinity (RBA2)
Brains from 200-500 g mixed sex Sprague-Dawley rats were purchased from Pel-Freez (Rogers, Ark.). […] Brains were thawed and then kept on ice while the striata were dissected out. Striata were disrupted in 10 vol of ice-cold 50 mM Tris.HCl (pH 7.7 at 25° C., pH 8.26 at 5° C.) (Tris) for 30 seconds in a Polytron PT-10 (Brinkmann) at setting 5. The suspension was centrifuged at 50,000 xg for ten minutes, the supernatant discarded, the pellet resuspended in 10 vol ice-cold Tris as above, recentrifuged, resuspended at 1 g/5 ml, and stored in plastic vials at -70° C. […] When needed, tissue was thawed at room temperature, disrupted in a Polytron, and kept on ice until used. […]
Incubations were terminated by filtration through 2.4 cm GF/B filters under reduced pressure. […] Filters were put in scintillation vials, 8 ml of Formula 947 scintillation fluid added, and the vials left overnight, shaken, and counted in a liquid scintillation counter at 40% efficiency.
The IC50 was calculated by weighted nonlinear least squares curve-fitting to the mass-action equation. […]
Weighting factors were calculated under the assumption that the standard deviation was proportional to the predicted value of Y. Nonspecific binding was treated as a very large (infinite) concentration of drug in the computer analysis.

pIC50: −log10 of the molar value.

What is called pIC50 is the IC50 on a negative log10 scale, so that one unit is a factor of ten. Higher therefore signals a small IC50. As to `O=[N+]([O-])c1ccc(C(CNc2ncnc3c2ncn3[C@@H]2O[C@H](CO)[C@@H](O)[C@H]2O)c2ccc([N+](=O)[O-])cc2)cc1` [Example 20], the negative-log IC50 (pIC50) on adenosine A1 receptor was 6.64; on adenosine A2 receptor, 6.25. Also, the “MAST ST LAD” value in series [1] was above 100 mg/kg.
